Like-named read-outs stand apart in the source and are kept apart here.
Assays:
[1] = biological target: HCV NS3/4A protease genotype 1b (Hepatitis C virus genotype 1b, UniProt P26663); experiment: HCV NS3/4A protease time-resolved fluorescence (TRF) assay, Ki against genotype 1b; type: biochemical; conditions: IC50 [gt-1b], NS3/4A protease TRF assay, genotype 1b enzyme 0.2 nM
Method in brief: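 Time-resolved fluorescence readout of NS3/4A cleavage of 25 nM europium-labelled peptide over 2.5 h at room temperature, enzyme levels set for signal/background 10–30 (0.2, 0.4, 0.025 nM for 1b, A156T, 3a). Ki by IC50=Ki(1+[S]/KM).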

HCV genotype 1b replicon = experiment: HCV replicon assay, genotype 1b replicon EC50; type: cell-based, Hepatitis C virus; conditions: Hepatitis C virus, HCV replicon, genotype 1b, read-out: EC50 [gt-1b]
Method in brief: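 Compound dilution series incubated 24-48 h, G418 absent, with HCV genotype 1b replicon cell lines kept under G418 selection beforehand. Luciferase signal or replicon RNA, by ^32P hybridization/protection or TaqMan normalized to cyclophilin A, was measured after washing and lysis. Four-parameter fitting against DMSO control gave EC50.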

SMILES	IC50 ([1]; K+ salt)	EC50 (HCV genotype 1b replicon; K+ salt)	IC50 [1]	EC50 (HCV genotype 1b replicon)
CC[C@H](C)OC(=O)N[C@H]1CCCCC/C=C\[C@@H]2C[C@@]2(C(=O)NS(=O)(=O)C2(C)CC2)NC(=O)[C@@H]2C[C@]3(CCc4c(c(C(F)F)nc5ccc(OC)cc45)O3)CN2C1=O [Example 444, (2S)-butan-2-yl [(2R,6S,12Z,13aS,14aR,16aS)-5′-(difluoromethyl)-9′-methoxy-14a-{[(1-methylcyclopropyl)sulfonyl]carbamoyl}-5,16-dioxo-1,1′,2′,5,6,7,8,9,10,11,13a,14,14a,15,16,16a-hexadecahydrospiro[cyclopropa[e]pyrrolo[1,2-a][1,4]diazacyclopentadecine-2,3′-pyrano[2,3-c]quinolin]-6-yl]carbamate]	0.014 nM	1.31 nM		
CC[C@@H](C)OC(=O)N[C@H]1CCCCC/C=C\[C@@H]2C[C@@]2(C(=O)NS(=O)(=O)C2(C)CC2)NC(=O)[C@@H]2C[C@]3(CCc4c(c(C(F)F)nc5ccc(OC)cc45)O3)CN2C1=O [Example 445, (2R)-butan-2-yl [(2R,6S,12Z,13aS,14aR,16aS)-5′-(difluoromethyl)-9′-methoxy-14a-{[(1-methylcyclopropyl)sulfonyl]carbamoyl}-5,16-dioxo-1,1′,2′,5,6,7,8,9,10,11,13a,14,14a,15,16,16a-hexadecahydrospiro[cyclopropa[e]pyrrolo[1,2-a][1,4]diazacyclopentadecine-2,3′-pyrano[2,3-c]quinolin]-6-yl]carbamate]	0.014 nM	1.14 nM		
COc1ccc2nc(C(F)F)c3c(c2c1)CC[C@]1(C[C@H]2C(=O)N[C@]4(C(=O)NS(=O)(=O)C5(C)CC5)C[C@H]4/C=C\CCCCC[C@H](NC(=O)OC(C)C)C(=O)N2C1)O3 [Example 446, propan-2-yl [(2R,6S,12Z,13aS,14aR,16aS)-5′-(difluoromethyl)-9′-methoxy-14a-{[(1-methylcyclopropyl)sulfonyl]carbamoyl}-5,16-dioxo-1,1′,2′,5,6,7,8,9,10,11,13a,14,14a,15,16,16a-hexadecahydrospiro[cyclopropa[e]pyrrolo[1,2-a][1,4]diazacyclopentadecine-2,3′-pyrano[2,3-c]quinolin]-6-yl]carbamate]			0.013 nM	1.17 nM
COc1ccc2nc(C(F)(F)F)c3c(c2c1)CC[C@]1(C[C@H]2C(=O)N[C@]4(C(=O)NS(=O)(=O)C5(C)CC5)C[C@H]4/C=C\CCCCC[C@H](NC(=O)OC(C)C)C(=O)N2C1)O3 [Example 447, propan-2-yl [(2R,6S,12Z,13aS,14aR,16aS)-9′-methoxy-14a-{[(1-methylcyclopropyl)sulfonyl]carbamoyl}-5,16-dioxo-5′-(trifluoromethyl)-1,1′,2′,5,6,7,8,9,10,11,13a,14,14a,15,16,16a-hexadecahydrospiro[cyclopropa[e]pyrrolo[1,2-a][1,4]diazacyclopentadecine-2,3′-pyrano[2,3-c]quinolin]-6-yl]carbamate]			0.019 nM	1.37 nM
CCCOC(=O)N[C@H]1CCCCC/C=C\[C@@H]2C[C@@]2(C(=O)NS(=O)(=O)C2(C)CC2)NC(=O)[C@@H]2C[C@]3(CCc4c(c(C(F)(F)F)nc5ccc(OC)cc45)O3)CN2C1=O [Example 448, propyl [(2R,6S,12Z,13aS,14aR,16aS)-9′-methoxy-14a-{[(1-methylcyclopropyl)sulfonyl]carbamoyl}-5,16-dioxo-5′-(trifluoromethyl)-1,1′,2′,5,6,7,8,9,10,11,13a,14,14a,15,16,16a-hexadecahydrospiro[cyclopropa[e]pyrrolo[1,2-a][1,4]diazacyclopentadecine-2,3′-pyrano[2,3-c]quinolin]-6-yl]carbamate]			0.006 nM	2.69 nM

From US8987195B2 (priority 2012, dated 2015)
